Paper PMC7316778 (Nature Communications, 2020)
Read-outs that look alike come from different tables or passages of the source.

Tests used:
Assay in all cases: SelectScreen kinase assay
MYLK4 = biological target: T1, MYLK4 (Homo sapiens, UniProt Q86YV6)
T1 sequence (Q86YV6 1-388): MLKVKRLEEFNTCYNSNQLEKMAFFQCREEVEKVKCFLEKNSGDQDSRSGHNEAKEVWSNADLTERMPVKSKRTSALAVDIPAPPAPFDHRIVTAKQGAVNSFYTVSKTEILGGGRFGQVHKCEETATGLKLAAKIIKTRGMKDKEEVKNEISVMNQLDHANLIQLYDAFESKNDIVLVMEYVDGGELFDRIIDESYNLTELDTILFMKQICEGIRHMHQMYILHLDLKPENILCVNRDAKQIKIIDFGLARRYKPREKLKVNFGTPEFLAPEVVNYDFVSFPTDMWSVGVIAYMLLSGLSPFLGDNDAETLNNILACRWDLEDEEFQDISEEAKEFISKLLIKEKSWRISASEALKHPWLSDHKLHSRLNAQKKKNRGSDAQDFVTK
Procedure: (§1) Selectivity profiling assays were performed by the Invitrogen SelectScreen™ Services. […] The concentration of ATP was selected to be equal to the KM, unless indicated otherwise.

RET = RET (Homo sapiens, UniProt P07949)
Procedure: as §1

DDR2 = DDR2 (Homo sapiens, UniProt Q16832)
Procedure: as §1

ROS1 = ROS1 (Homo sapiens, UniProt P08922)
Procedure: as §1

CSK = CSK (Homo sapiens, UniProt P41240); settings: for Inhibition at 1 µM (%): CSK, ZLYTE, ATP Km app
Procedure: as §1

MAP2K6 (MKK6) = biological target: T2, MAP2K6 (MKK6) (Homo sapiens, UniProt P52564)
T2 sequence (P52564 1-334): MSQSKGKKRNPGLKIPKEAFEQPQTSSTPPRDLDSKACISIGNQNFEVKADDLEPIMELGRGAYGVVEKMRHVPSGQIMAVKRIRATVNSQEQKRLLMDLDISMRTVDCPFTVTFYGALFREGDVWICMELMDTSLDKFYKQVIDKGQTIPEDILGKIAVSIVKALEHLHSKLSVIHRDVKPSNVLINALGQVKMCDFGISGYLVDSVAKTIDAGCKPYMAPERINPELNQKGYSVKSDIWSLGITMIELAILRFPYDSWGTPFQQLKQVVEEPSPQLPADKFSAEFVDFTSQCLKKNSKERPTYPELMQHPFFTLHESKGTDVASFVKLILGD
Procedure: as §1

TYRO3 (RSE) = biological target: T3, TYRO3 (RSE) (Homo sapiens, UniProt Q06418)
T3 sequence (Q06418 41-890): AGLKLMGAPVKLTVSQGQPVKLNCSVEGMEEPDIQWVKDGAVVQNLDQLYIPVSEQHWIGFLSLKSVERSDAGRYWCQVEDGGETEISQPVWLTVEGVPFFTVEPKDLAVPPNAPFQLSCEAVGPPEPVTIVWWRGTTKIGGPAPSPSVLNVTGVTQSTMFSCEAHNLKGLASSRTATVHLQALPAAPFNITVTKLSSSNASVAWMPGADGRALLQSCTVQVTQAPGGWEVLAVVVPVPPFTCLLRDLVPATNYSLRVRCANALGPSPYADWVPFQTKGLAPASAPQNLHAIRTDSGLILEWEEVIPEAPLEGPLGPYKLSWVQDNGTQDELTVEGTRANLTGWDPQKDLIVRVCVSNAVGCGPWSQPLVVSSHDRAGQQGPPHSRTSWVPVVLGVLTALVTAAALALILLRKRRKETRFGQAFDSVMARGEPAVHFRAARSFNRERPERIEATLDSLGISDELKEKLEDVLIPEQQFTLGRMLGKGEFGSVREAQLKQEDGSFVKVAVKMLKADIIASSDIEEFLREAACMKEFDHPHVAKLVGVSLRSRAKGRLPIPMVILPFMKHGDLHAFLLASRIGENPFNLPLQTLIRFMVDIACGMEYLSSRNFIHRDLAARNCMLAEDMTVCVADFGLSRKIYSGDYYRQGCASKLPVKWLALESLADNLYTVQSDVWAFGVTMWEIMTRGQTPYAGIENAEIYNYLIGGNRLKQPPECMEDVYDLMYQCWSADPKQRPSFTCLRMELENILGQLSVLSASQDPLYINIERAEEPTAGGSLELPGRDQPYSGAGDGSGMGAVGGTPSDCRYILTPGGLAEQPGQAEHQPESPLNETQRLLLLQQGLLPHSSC
Procedure: as §1

AKT3 (PKB gamma) = AKT3 (PKB gamma) (Homo sapiens, UniProt Q9Y243); settings: for Inhibition at 1 µM (%): AKT3 (PKB gamma), ZLYTE, ATP Km app
Procedure: as §1

PAK7 (KIAA1264) = PAK7 (KIAA1264) (Homo sapiens, UniProt Q9P286)
Procedure: as §1

ZAP70 = ZAP70 (Homo sapiens, UniProt P43403); settings: 1 h, 1 μM WEL028, 1 h preincubation
Procedure: as §1

MATK (HYL) = MATK (HYL) (Homo sapiens, UniProt P42679)
Procedure: as §1

STK38 (NDR) = STK38 (NDR) (Homo sapiens, UniProt Q15208); settings: for Inhibition at 1 µM (%): LanthaScreen Binding
Procedure: as §1

[1] = 1 h, 1 μM WEL028, 1 h preincubation
[2] = read-out: Inhibition at 1 µM (%), 1 µM, ZLYTE, ATP Km app
[3] = 1 µM, ZLYTE, ATP Km app, listed as WEL028, 1 µM
[4] = IC50 on that kinase divided by IC50 on FES^S700C

ROS1, sequence (P08922 28-2347, species assumed): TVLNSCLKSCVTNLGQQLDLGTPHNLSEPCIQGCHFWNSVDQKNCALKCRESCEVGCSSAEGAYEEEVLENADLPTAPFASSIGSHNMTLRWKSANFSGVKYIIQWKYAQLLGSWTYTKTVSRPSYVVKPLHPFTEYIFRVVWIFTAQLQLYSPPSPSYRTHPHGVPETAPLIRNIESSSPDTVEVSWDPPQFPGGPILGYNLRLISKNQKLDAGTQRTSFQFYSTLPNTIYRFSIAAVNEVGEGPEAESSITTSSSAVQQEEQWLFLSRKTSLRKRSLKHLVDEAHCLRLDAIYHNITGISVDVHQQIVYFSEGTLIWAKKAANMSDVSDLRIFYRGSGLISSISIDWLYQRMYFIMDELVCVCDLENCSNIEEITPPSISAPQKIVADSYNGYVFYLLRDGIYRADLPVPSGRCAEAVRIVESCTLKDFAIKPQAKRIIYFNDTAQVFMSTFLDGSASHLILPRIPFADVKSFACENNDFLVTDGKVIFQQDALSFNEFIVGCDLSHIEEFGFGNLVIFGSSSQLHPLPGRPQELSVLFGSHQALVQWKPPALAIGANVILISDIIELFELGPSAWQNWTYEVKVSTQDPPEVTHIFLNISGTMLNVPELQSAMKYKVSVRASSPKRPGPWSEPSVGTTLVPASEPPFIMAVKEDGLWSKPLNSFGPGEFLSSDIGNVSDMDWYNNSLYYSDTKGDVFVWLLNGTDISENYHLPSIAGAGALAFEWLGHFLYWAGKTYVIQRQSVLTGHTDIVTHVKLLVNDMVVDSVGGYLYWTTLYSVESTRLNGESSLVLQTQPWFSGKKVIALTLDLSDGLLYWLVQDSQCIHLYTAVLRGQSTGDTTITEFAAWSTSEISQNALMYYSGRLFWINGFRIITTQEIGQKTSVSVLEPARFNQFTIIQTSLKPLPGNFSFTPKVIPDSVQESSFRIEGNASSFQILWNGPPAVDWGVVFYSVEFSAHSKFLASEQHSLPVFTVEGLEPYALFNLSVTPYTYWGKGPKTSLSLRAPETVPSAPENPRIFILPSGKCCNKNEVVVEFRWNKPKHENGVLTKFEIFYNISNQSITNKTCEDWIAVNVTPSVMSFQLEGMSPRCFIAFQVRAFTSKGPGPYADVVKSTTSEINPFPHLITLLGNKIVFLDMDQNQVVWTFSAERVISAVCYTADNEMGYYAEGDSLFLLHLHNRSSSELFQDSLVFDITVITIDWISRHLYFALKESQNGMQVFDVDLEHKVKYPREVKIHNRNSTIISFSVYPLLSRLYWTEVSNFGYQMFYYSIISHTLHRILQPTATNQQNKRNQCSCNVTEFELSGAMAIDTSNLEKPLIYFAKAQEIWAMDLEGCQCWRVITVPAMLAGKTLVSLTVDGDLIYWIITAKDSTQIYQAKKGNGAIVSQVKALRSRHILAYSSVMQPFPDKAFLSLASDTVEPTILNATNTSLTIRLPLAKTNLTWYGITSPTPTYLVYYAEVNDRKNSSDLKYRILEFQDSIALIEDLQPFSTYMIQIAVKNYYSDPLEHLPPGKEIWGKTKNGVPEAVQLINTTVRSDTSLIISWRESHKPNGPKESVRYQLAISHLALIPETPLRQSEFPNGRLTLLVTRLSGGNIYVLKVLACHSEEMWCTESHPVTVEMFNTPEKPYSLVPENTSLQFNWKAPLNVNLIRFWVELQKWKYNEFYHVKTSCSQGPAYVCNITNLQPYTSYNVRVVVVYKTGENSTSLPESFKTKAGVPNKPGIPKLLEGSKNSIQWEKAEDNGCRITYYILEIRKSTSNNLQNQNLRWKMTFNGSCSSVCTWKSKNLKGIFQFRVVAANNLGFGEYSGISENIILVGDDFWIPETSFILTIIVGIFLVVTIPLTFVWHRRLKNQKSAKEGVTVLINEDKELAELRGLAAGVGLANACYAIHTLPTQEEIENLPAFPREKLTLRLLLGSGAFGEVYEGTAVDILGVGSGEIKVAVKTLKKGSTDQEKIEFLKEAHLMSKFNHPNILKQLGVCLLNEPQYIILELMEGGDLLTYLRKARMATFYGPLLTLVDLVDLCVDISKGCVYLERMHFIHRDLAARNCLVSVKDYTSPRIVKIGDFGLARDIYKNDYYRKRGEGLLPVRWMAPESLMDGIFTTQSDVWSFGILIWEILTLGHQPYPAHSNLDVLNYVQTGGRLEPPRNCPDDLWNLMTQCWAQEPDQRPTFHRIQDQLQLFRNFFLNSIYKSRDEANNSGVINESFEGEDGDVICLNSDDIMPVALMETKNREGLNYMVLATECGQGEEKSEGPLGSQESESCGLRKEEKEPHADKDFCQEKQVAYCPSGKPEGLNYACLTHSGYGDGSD
PAK7 (KIAA1264), sequence (Q9P286 whole entry): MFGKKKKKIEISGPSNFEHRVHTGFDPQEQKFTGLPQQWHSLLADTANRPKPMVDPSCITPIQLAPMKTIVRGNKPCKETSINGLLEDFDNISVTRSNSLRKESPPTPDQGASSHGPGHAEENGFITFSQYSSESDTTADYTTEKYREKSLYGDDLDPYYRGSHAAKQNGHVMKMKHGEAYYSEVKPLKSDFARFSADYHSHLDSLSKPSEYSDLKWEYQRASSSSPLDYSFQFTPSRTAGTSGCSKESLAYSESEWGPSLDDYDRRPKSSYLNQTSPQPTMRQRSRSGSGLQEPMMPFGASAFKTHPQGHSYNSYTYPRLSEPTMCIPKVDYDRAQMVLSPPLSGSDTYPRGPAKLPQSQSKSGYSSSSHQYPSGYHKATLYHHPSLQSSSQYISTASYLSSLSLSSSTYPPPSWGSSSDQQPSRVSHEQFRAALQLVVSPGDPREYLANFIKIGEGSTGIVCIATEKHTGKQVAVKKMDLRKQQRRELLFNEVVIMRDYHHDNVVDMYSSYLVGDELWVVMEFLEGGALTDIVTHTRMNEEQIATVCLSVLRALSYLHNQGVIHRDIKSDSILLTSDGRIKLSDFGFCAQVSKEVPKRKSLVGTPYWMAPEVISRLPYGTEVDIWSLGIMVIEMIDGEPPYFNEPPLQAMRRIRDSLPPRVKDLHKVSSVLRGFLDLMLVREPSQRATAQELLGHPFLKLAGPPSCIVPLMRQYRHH
STK38 (NDR), sequence (Q15208 whole entry): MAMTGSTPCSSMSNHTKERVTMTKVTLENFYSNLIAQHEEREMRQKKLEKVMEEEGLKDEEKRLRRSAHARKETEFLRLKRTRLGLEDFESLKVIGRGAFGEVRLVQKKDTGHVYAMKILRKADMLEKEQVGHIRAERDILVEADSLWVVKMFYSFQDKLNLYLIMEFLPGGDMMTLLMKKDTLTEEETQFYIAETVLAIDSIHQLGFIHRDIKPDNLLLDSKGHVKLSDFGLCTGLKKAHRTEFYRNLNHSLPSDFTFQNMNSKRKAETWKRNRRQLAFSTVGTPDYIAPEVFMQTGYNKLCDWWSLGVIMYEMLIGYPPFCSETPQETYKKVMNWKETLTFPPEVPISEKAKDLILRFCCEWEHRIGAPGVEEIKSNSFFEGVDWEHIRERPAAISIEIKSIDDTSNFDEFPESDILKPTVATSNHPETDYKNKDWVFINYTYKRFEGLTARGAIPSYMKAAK
AKT3 (PKB gamma), sequence (Q9Y243 whole entry): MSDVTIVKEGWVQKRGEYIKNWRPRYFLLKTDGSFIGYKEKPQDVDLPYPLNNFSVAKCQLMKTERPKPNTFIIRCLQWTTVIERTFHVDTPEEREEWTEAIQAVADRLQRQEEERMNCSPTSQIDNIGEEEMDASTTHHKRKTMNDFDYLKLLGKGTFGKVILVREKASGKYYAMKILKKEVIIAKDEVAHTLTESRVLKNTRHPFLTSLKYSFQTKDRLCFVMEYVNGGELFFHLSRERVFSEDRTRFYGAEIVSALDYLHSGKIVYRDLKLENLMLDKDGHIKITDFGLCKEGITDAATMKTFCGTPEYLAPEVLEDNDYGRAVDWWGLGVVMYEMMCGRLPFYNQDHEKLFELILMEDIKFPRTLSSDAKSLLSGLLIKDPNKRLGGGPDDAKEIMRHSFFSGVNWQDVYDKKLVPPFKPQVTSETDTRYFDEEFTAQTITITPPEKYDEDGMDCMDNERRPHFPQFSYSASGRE
CSK, sequence (P41240 whole entry): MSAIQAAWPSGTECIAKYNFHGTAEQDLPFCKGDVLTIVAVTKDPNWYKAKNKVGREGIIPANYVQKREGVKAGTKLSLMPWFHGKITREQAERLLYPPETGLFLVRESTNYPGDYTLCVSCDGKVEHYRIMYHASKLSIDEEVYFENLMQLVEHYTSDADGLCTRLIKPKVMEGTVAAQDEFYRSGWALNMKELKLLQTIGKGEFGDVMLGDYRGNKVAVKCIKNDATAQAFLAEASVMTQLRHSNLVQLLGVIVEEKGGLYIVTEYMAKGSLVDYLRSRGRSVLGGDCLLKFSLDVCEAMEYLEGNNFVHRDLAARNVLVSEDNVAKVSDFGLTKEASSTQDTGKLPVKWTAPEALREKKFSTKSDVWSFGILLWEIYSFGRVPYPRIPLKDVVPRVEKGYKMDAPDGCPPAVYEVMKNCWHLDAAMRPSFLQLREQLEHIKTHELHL
MATK (HYL), sequence (P42679 whole entry): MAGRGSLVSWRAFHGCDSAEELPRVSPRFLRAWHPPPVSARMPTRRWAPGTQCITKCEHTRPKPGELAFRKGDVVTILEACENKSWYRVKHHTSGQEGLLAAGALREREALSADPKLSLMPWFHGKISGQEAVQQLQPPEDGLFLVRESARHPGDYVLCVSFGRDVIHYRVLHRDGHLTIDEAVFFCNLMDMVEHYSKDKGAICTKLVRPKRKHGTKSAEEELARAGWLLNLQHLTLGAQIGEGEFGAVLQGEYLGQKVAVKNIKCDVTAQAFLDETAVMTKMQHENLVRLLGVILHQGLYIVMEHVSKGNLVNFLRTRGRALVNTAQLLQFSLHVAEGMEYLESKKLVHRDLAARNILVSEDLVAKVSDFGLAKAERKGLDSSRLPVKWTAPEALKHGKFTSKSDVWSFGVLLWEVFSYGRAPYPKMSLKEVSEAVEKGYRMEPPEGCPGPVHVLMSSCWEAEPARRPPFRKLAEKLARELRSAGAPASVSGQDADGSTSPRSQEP

C#CCOc1ccc(Nc2ncc(Cl)c(Nc3ccccc3NC(=O)C=C)n2)c(OC)c1 [Compound 6]
inhibition at 1 µM (MYLK4; [1]): 10%
Inhibition at 1 µM (%) (MYLK4; MYLK4, 1 µM, LanthaScreen Binding, listed as WEL028, 1 µM): 14%
inhibition at 1 µM (MYLK4; read-out: Inhibition at 1 µM (%), MYLK4, 1 µM, LanthaScreen Binding): 7%
inhibition at 1 µM (RET; [1]): 7%
inhibition at 1 µM (RET; [2]): 6%
inhibition at 1 µM (DDR2; [1]): 3%
inhibition at 1 µM (DDR2; read-out: Inhibition at 1 µM (%), DDR2, 1 µM, LanthaScreen Binding): 2%
IC50 (ROS1): > 10 µM
Inhibition at 1 µM (%) (ROS1; [3]): 52%
inhibition at 1 µM (ROS1; [1]): 56%
inhibition at 10 µM (ROS1; 1 h, log[inhibitor] (M) -5.00, ZLYTE, ATP Km app): 76%
inhibition at 3.31 µM (ROS1; 1 h, log[inhibitor] (M) -5.48, ZLYTE, ATP Km app): 80%
inhibition at 1.12 µM (ROS1; 1 h, log[inhibitor] (M) -5.95, ZLYTE, ATP Km app): 53%
inhibition at 0.372 µM (ROS1; 1 h, log[inhibitor] (M) -6.43, ZLYTE, ATP Km app): 42%
inhibition at 0.123 µM (ROS1; 1 h, log[inhibitor] (M) -6.91, ZLYTE, ATP Km app): 23%
inhibition at 0.00151 µM (ROS1; 1 h, log[inhibitor] (M) -8.82, ZLYTE, ATP Km app): 6%
Apparent fold selectivity (ROS1; [4]): > 238 fold
inhibition at 1 µM (ROS1; [2]): 60%
Inhibition (%) (CSK; 1 μM WEL028, 1 h preincubation): 5%
Inhibition at 1 µM (%) (CSK): 2%
Inhibition at 1 µM (%) (CSK; listed as WEL028, 1 µM): 8%
IC50 (MAP2K6 (MKK6)): 316 nM
inhibition at 1 µM (MAP2K6 (MKK6); [1]): 73%
inhibition at 10 µM (MAP2K6 (MKK6); 1 h, log[inhibitor] (M) -5.00, ZLYTE, ATP 100): 92%
inhibition at 3.311 µM (MAP2K6 (MKK6); 1 h, log[inhibitor] (M) -5.48, ZLYTE, ATP 100): 96%
inhibition at 1.122 µM (MAP2K6 (MKK6); 1 h, log[inhibitor] (M) -5.95, ZLYTE, ATP 100): 80%
inhibition at 0.3715 µM (MAP2K6 (MKK6); 1 h, log[inhibitor] (M) -6.43, ZLYTE, ATP 100): 51%
inhibition at 0.123 µM (MAP2K6 (MKK6); 1 h, log[inhibitor] (M) -6.91, ZLYTE, ATP 100): 29%
inhibition at 0.0138 µM (MAP2K6 (MKK6); 1 h, log[inhibitor] (M) -7.86, ZLYTE, ATP 100): 11%
inhibition at 0.001514 µM (MAP2K6 (MKK6); 1 h, log[inhibitor] (M) -8.82, ZLYTE, ATP 100): 4%
Apparent fold selectivity (MAP2K6 (MKK6); [4]): 68 fold
inhibition at 1 µM (MAP2K6 (MKK6); read-out: Inhibition at 1 µM (%), MAP2K6 (MKK6), 1 µM, ZLYTE, ATP 100): 73%
Inhibition at 1 µM (%) (TYRO3 (RSE); [3]): 6%
inhibition at 1 µM (TYRO3 (RSE); [1]): 5%
inhibition at 1 µM (TYRO3 (RSE); [2]): 4%
inhibition at 1 µM (AKT3 (PKB gamma); [1]): 1%
Inhibition at 1 µM (%) (AKT3 (PKB gamma)): 3%
Inhibition at 1 µM (%) (AKT3 (PKB gamma); listed as WEL028, 1 µM): 0%
inhibition at 1 µM (PAK7 (KIAA1264); [1]): 12%
Inhibition at 1 µM (%) (PAK7 (KIAA1264); PAK7 (KIAA1264), 1 µM, ZLYTE, ATP Km app, listed as WEL028, 1 µM): 15%
inhibition at 1 µM (PAK7 (KIAA1264); read-out: Inhibition at 1 µM (%), PAK7 (KIAA1264), 1 µM, ZLYTE, ATP Km app): 10%
inhibition at 1 µM (ZAP70): 2%
inhibition at 1 µM (MATK (HYL); 1 h): 8%
inhibition at 1 µM (MATK (HYL); read-out: Inhibition at 1 µM (%)): 8%
Inhibition at 1 µM (%) (STK38 (NDR)): 2%
Inhibition at 1 µM (%) (STK38 (NDR); listed as WEL028, 1 µM): 6%
inhibition at 1 µM (STK38 (NDR); [1]): 4%
